In EP0247507A2, “Composition for transdermal therapeutical systems of high-ceiling diuretics, and process for producing it” (priority 1986, dated 1987):

Test system: Ratte
Assay: Salidiuretic effect in the rat (urine volume, Na, K, Cl excretion) after percutaneous (TTS) or oral administration
Format: in vivo
From the text: Die folgenden Beispiele sollen die Erfindung erläutern. Die Zusammensetzungen wurden durch Mischen der Wirkstoffe mit der Grundlage in einem Rührwerk mit eingebautem Homogenisator erhalten. Als transdermale therapeutische Systeme wurden aus dem deutschen Gebrauchsmuster 84 07 036 bekannte Pflasterpackungen verwendet.

[1] = Furosemid 5 mg/rat p.o. (suspended in 2 % aqueous starch solution), collection period 1 - 5 h, n = 4
[2] = Furosemid 5 mg/rat p.o. (suspended in 2 % aqueous starch solution), collection period 1 - 24 h, n = 4
[3] = Furosemid 5 mg/rat p.o. (suspended in 2 % aqueous starch solution), collection period 6 - 24 h, n = 4
[4] = Piretanid 20 mg/rat p.o. (suspended in 2 % aqueous starch solution), collection period 1 - 5 h, n = 2
[5] = Piretanid 20 mg/rat p.o. (suspended in 2 % aqueous starch solution), collection period 1 - 24 h, n = 2
[6] = Piretanid 20 mg/rat p.o. (suspended in 2 % aqueous starch solution), collection period 6 - 24 h, n = 2

## NS(=O)(=O)c1cc(C(=O)O)c(NCc2ccco2)cc1Cl [Furosemid, 4-Chlor-N-furfuryl-5-sulfamoylanthranilsäure]
[1]
  Chlorid: 6.10 ± 0.62 mmol/kg
  Kalium: 1.40 ± 0.16 mmol/kg
  Natrium: 4.81 ± 0.75 mmol/kg
  Urin: 47.8 ± 3.5 mL/kg
[2]
  Chlorid: 6.59 ± 0.61 mmol/kg
  Kalium: 3.88 ± 0.88 mmol/kg
  Natrium: 6.03 ± 0.75 mmol/kg
  Urin: 59.7 ± 6.2 mL/kg
[3]
  Chlorid: 0.49 ± 0.11 mmol/kg
  Kalium: 2.48 ± 0.79 mmol/kg
  Natrium: 1.22 ± 0.21 mmol/kg
  Urin: 11.9 ± 3.6 mL/kg

## NS(=O)(=O)c1cc(C(=O)O)cc(N2CCCC2)c1Oc1ccccc1 [Piretanid, 4-Phenoxy-3-(1-pyrrolidinyl)-5-sulfamoylbenzoesäure]
[4]
  Chlorid: 8.36 mmol/kg
  Kalium: 1.92 mmol/kg
  Natrium: 7.07 mmol/kg
  Urin: 65.0 mL/kg
[5]
  Chlorid: 11.36 mmol/kg
  Kalium: 11.67 mmol/kg
  Natrium: 11.78 mmol/kg
  Urin: 112.1 mL/kg
[6]
  Chlorid: 3.00 mmol/kg
  Kalium: 9.75 mmol/kg
  Natrium: 4.71 mmol/kg
  Urin: 47.1 mL/kg
